Experimental data: patent US5230998A, “Method for the prescreening of drugs targeted to the V3 hypervariable loop of the HIV-1 envelope glycoprotein gp 120” (priority 1991, dated 1993)

What was measured:
Assay in all cases: Toxicity for cells
Assay type in all cases: cell-based
Settings in all cases: at the concentrations used
[1] = system: U937 cells
Source text: (§1) The combined effects of AZT and ATA, and other compounds shown to be effective in Table 1, hereinbelow, against HIV-1 are also contemplated by the present invention, since synergistic drug combinations would offer means for alleviating toxicity due to AZT, observed in clinical settings. Contemplated combinations include, for example, AZT+ATA, AZT+chlorin e6; AZT+deuteroporphyrin IX, 2,4(4,2) hydroxyethyvinyl; and AZT+meso-tetra(4-carboxyphenyl)porphine.

[2] = system: MT-2 cells
Source text: as §1

[3] = system: H9 cells
Source text: as §1

O=C(O)C1=CC(=C(c2ccc(O)c(C(=O)O)c2)c2ccc(O)c(C(=O)O)c2)C=CC1=O [substance #122, aurintricarboxylic acid]
lack of toxicity: toxicity for U937 cells [1] | toxicity for MT-2 cells [2] | toxicity for H9 cells [3]
